This passage reports MIC results from patent US4698352A, “4-oxo-1,4-dihydronicotinic acid derivatives, salts thereof, and antibacterial agents containing the same” (Toyama Chemical Co., Ltd., priority 1982, dated 1987).

Common to all, as to assay: Antibacterial activity (MIC), agar dilution
What all share (format): cell-based
A general note: Agar dilution tests growth on a series of plates holding different concentrations.

In assay [1] the test system is Aci. antitratus A-6. To be noted: 20 h, Aci. antitratus A-6; 10^6 cells per ml; 37° C., 20 hours; read-out: MIC. From the text:
(§1) The amount of bacteria inoculated was 10^4 cells per plate (10^6 cells per ml).

Assay [2] has as its system E. coli NIHJ JC-2. To be noted: Escherichia coli, NIHJJC2, 20 h.
From the text: as §1

The subject of assay [3] is E. coli TK-111. To be noted: Escherichia coli, TK111, 20 h.
From the text: as §1

The subject of assay [4] is Ent. cloacae IID977. To be noted: Enterobacter cloacae, IID977, 20 h.
From the text: as §1

The subject of assay [5] is Kl. pneumoniae Y-41. To be noted: Klebsiella pneumoniae, Y41, 10^6 cells per ml, 37° C., 20 hours, read-out: MIC.
From the text: as §1

For assay [6], the system named is Kl. pneumoniae Y-50. To be noted: Klebsiella pneumoniae, Y50, 20 h, 10^6 cells per ml, 37° C., read-out: MIC.
From the text: as §1

In assay [7] the test system is Pro. mirabilis T-111. To be noted: Proteus mirabilis, 37° C.
From the text: as §1

In assay [8] the test system is Pro. morganii T-216. To be noted: Morganella morganii, 37° C.
From the text: as §1

Assay [9] deals with Pro. vulgaris GN3027. To be noted: Proteus vulgaris, GN3027, 20 h, Pro. vulgaris GN3027; 10^6 cells per ml; 37° C., 20 hours; read-out: MIC.
From the text: as §1

Assay [10] concerns Ps. aeruginosa IFO3445. To be noted: Pseudomonas aeruginosa.
From the text: as §1

For assay [11], the system named is Ps. aeruginosa S-68. To be noted: Pseudomonas aeruginosa.
From the text: as §1

Assay [12] concerns St. aureus FDA209P. To be noted: Staphylococcus aureus, FDA209P, 20 h, St. aureus FDA209P; 10^6 cells per ml; 37° C., 20 hours; read-out: MIC.
From the text: as §1

For assay [13], the system named is E. coli TK-3*. To be noted: Escherichia coli, 20 h.
From the text: as §1
(§2) * Penicillinase-producing bacteria

Assay [14] deals with Kl. pneumoniae Y-4*. To be noted: Klebsiella pneumoniae, 20 h, Kl. pneumoniae Y-4, penicillinase-producing; 10^6 cells per ml; read-out: MIC.
From the text: as §1, §2

In assay [15] the test system is Ps. aeruginosa GN3379*. To be noted: Pseudomonas aeruginosa, Ps. aeruginosa GN3379, penicillinase-producing, 10^6 cells per ml.
From the text: as §1, §2

The subject of assay [16] is St. aureus F-137*. To be noted: Staphylococcus aureus, 20 h.
From the text: as §1, §2

Assay [17] relates to E. coli GN5482**. To be noted: Escherichia coli, 20 h; E. coli GN5482, cephalospolinase-producing; 10^6 cells per ml; read-out: MIC.
From the text: as §1
(§3) ** Cephalospolinase-producing bacteria

Assay [18] concerns Pro. vulgaris GN76**. To be noted: Proteus vulgaris.
From the text: as §1, §3

Assay [19] has as its system Ps. aeruginosa GN918**. To be noted: Pseudomonas aeruginosa, 20 h; Ps. aeruginosa GN918, cephalospolinase-producing; 10^6 cells per ml; read-out: MIC.
From the text: as §1, §3

Where [20] appears, read: E. coli NIHJ JC-2, 10^6 cells per ml, 37° C., 20 hours, read-out: MIC.
The mark [21] stands for this setting: E. coli TK-111, 10^6 cells per ml, 37° C., 20 hours, read-out: MIC.
Setting [22] is: T111, 10^6 cells per ml, 20 hours, read-out: MIC.
The mark [23] stands for this setting: St. aureus F-137, penicillinase-producing, 10^6 cells per ml, read-out: MIC.
Where [24] appears, read: 20 h, Pro. vulgaris GN76, cephalospolinase-producing, 10^6 cells per ml, read-out: MIC.
Where [25] appears, read: Ent. cloacae IID977, 10^6 cells per ml, 37° C., 20 hours, read-out: MIC.
The mark [26] stands for this setting: T216, 10^6 cells per ml, 20 hours, read-out: MIC.
Where [27] appears, read: Ps. aeruginosa IFO3445, 10^6 cells per ml, 37° C., 20 hours, read-out: MIC.
The mark [28] stands for this setting: E. coli TK-3, penicillinase-producing, 10^6 cells per ml, read-out: MIC.

In brackets after ≈: the same amount, converted by molar mass. Where two headings read alike, the source gives them in different places.

For orientation: MIC means the smallest concentration in the dilution series that meets the test's criterion for growth inhibition.

On to `Cc1cc(O)ccc1-n1cc(C(=O)O)c(=O)cc1C1=CCCC1`, for which the MIC in assay [1] stood at 0.78 µg/mL (≈ 2.51 µM); in assay [2] (setting [20]), 0.78 µg/mL (≈ 2.51 µM); in assay [3] (setting [21]) it was 0.2 µg/mL (≈ 0.642 µM); in assay [4], 1.56 µg/mL (≈ 5.01 µM); in [5], 1.56 µg/mL (≈ 5.01 µM); in assay [6] it was 0.39 µg/mL (≈ 1.25 µM). In addition, the MIC in assay [7] (setting [22]) turned out to be 3.13 µg/mL (≈ 10.1 µM); in assay [8] (T216, 20 h, 10^6 cells per ml) it was 1.56 µg/mL (≈ 5.01 µM); in assay [9], 0.1 µg/mL (≈ 0.321 µM); in assay [10] (IFO3445, 20 h) it was 6.25 µg/mL (≈ 20.1 µM); in assay [11] (S68, 20 h), 6.25 µg/mL (≈ 20.1 µM); in [12], 0.78 µg/mL (≈ 2.51 µM). Also, the MIC came to 1.56 µg/mL (≈ 5.01 µM) in assay [13]; 6.25 µg/mL (≈ 20.1 µM) in assay [14]; 25 µg/mL (≈ 80.3 µM) in [15] (20 h, read-out: MIC); 0.78 µg/mL (≈ 2.51 µM) in [16] (setting [23]); 0.1 µg/mL (≈ 0.321 µM) in [17]; 0.78 µg/mL (≈ 2.51 µM) in [18] (setting [24]). Further, the MIC in [19] was found to be 3.13 µg/mL (≈ 10.1 µM).
For `CC=Cc1cc(=O)c(C(=O)O)cn1-c1ccc(O)cc1C`, the MIC in assay [1] was found to be 6.25 µg/mL (≈ 21.9 µM); in [2] (setting [20]) it was 3.13 µg/mL (≈ 11 µM); in assay [3], 1.56 µg/mL (≈ 5.47 µM); in assay [4] (setting [25]), 6.25 µg/mL (≈ 21.9 µM); in assay [5], 12.5 µg/mL (≈ 43.8 µM); in [6], 1.56 µg/mL (≈ 5.47 µM). Besides, the MIC in [7] (setting [22]) worked out at 25 µg/mL (≈ 87.6 µM); in [8] (setting [26]), 3.13 µg/mL (≈ 11 µM); in assay [9], 0.39 µg/mL (≈ 1.37 µM); in assay [10] (setting [27]) it was 25 µg/mL (≈ 87.6 µM); in assay [11] (S68, 20 h), 12.5 µg/mL (≈ 43.8 µM); in assay [12] it was 6.25 µg/mL (≈ 21.9 µM). Besides, the MIC in assay [13] (setting [28]) stood at 3.13 µg/mL (≈ 11 µM); in assay [14] it was 25 µg/mL (≈ 87.6 µM); in assay [15] (20 h, read-out: MIC), 25 µg/mL (≈ 87.6 µM); in assay [16], 12.5 µg/mL (≈ 43.8 µM); in assay [17], 0.39 µg/mL (≈ 1.37 µM); in assay [18] (GN76, 20 h) it was 1.56 µg/mL (≈ 5.47 µM). Further, the minimal inhibitory concentration (MIC) in assay [19] is 6.25 µg/mL (≈ 21.9 µM).
As to `Cc1cc(O)ccc1-n1cc(C(=O)O)c(=O)cc1CCc1ccccc1`, the MIC was 0.39 µg/mL (≈ 1.12 µM) in assay [1]; 3.13 µg/mL (≈ 8.96 µM) in assay [2] (setting [20]); 0.39 µg/mL (≈ 1.12 µM) in [3] (setting [21]); 6.25 µg/mL (≈ 17.9 µM) in [4] (setting [25]); 12.5 µg/mL (≈ 35.8 µM) in assay [5]; 1.56 µg/mL (≈ 4.46 µM) in [6]. Also, the MIC in assay [7] (T111, 20 h, 10^6 cells per ml) worked out at 12.5 µg/mL (≈ 35.8 µM); in [8] (setting [26]) it was 3.13 µg/mL (≈ 8.96 µM); in assay [9], 0.1 µg/mL (≈ 0.286 µM); in [10] (setting [27]), 25 µg/mL (≈ 71.6 µM); in assay [11] (S68, 20 h), 12.5 µg/mL (≈ 35.8 µM); in assay [12] it was 0.78 µg/mL (≈ 2.23 µM). Further, the minimal inhibitory concentration (MIC) in assay [13] (setting [28]) turned out to be 3.13 µg/mL (≈ 8.96 µM); in [14], 12.5 µg/mL (≈ 35.8 µM); in assay [15] (GN3379, 20 h), 12.5 µg/mL (≈ 35.8 µM); in assay [16] (setting [23]), 0.78 µg/mL (≈ 2.23 µM); in [17] it was 0.2 µg/mL (≈ 0.572 µM); in assay [18] (GN76, 20 h) it was 1.56 µg/mL (≈ 4.46 µM). Besides, in assay [19], the minimal inhibitory concentration (MIC) was determined as 3.13 µg/mL (≈ 8.96 µM).
Consider `CC(=O)Oc1ccc(-n2cc(C(=O)OCC(O)CO)c(=O)cc2-c2ccc(N(C)C)cc2)cc1` (stereo not shown), for which the MIC was found to be 1.56 µg/mL (≈ 3.34 µM) in assay [1]; 3.13 µg/mL (≈ 6.71 µM) in assay [2]; 0.78 µg/mL (≈ 1.67 µM) in [3] (setting [21]); 6.25 µg/mL (≈ 13.4 µM) in assay [4] (setting [25]); 25 µg/mL (≈ 53.6 µM) in assay [5]; 3.13 µg/mL (≈ 6.71 µM) in assay [6]. Moreover, the MIC amounted to 25 µg/mL (≈ 53.6 µM) in assay [7] (setting [22]); 12.5 µg/mL (≈ 26.8 µM) in assay [8] (setting [26]); 0.78 µg/mL (≈ 1.67 µM) in [9]; 50 µg/mL (≈ 107 µM) in [10] (setting [27]); 25 µg/mL (≈ 53.6 µM) in assay [11] (S68, Ps. aeruginosa S-68, 10^6 cells per ml, 37° C., 20 hours, read-out: MIC); 1.56 µg/mL (≈ 3.34 µM) in assay [12]. Further, the MIC is 6.25 µg/mL (≈ 13.4 µM) in [13] (setting [28]); 25 µg/mL (≈ 53.6 µM) in assay [14]; 50 µg/mL (≈ 107 µM) in [15] (20 h, read-out: MIC); 1.56 µg/mL (≈ 3.34 µM) in assay [16] (setting [23]); 0.1 µg/mL (≈ 0.214 µM) in [17]; 6.25 µg/mL (≈ 13.4 µM) in assay [18] (setting [24]). Also, the MIC in assay [19] is 12.5 µg/mL (≈ 26.8 µM).
